Reference: patent publication US20010019716A1 (priority 1996, published 2001)

Columns and labels:
[1] = tested on: Mycobacterium tuberculosis; conditions: in vivo; cited from earlier work
HeLa cells [2] = format: cell-based
HeLa cells [3] = format: cell-based; remark: listed apart in the source

| Molecule | effective in preventing the disease [1] | concentration of peptide at which internalization of the beads was achieved (as low as) (HeLa cells [2]) [nM] | concentration sufficient to permit uptake of the spheres by Hela cells (HeLa cells [2]) | entry of coated beads into HeLa cells compared with whole Mcep (SEQ. ID. No. 4) (HeLa cells [2]) | uptake of coated 0.3 μm latex microspheres, transmission electron microscopy (HeLa cells [2]) | blocking of uptake of Mcep-coated beads (HeLa cells [3]) |
| --- | --- | --- | --- | --- | --- | --- |
| NNC(=O)c1ccncc1 [isoniazid] | about 90% |  |  |  |  |  |
| TKRRITPKDVIDVRSVTTEINT [Inv3] |  | 25 | nanomolar concentration | as efficiently as the whole Mcep | uptake | competitively blocked |
